# What was measured:
# Type in all cases: in vivo, Nicotiana tabacum (Xanthi nc)
# [1] = test system: PR-1a protein; assay: Induction and quantification of PR-1a protein after leaf infiltration of tobacco; settings: for PR-1a induction, result in words: leaf infiltration; for PR-1a protein following treatment, 96 h / PR-1a protein following treatment, 192 h: compared to 1 mM SA at 96 h
# Protocol: (§1) Tobacco (Nicotiana tabacum) plants (Xanthi nc) were grown in Promix PGX at 25 C and a 16/8 h photoperiod. Plants were fed a 1 g/L concentration of 20-20-20 (N-P-K fertilizer) twice a week. The Xanthi-nc variety carries the N-gene for resistance to TMV.
# For evaluating pathogenesis-related protein induction, test compounds were dissolved in ethanol and dispersed in water (0.1% v/v ethanol). The most recently fully-expanded leaf on each plant was selected for infiltration. Infiltration was accomplished using a 5 mL disposable syringe (without needle). The solution was forced through the stomates of the abaxial surface of the leaf. Treatment solution was infiltrated into the leaf until the leaf was saturated.
# All harvests were performed 96 hours after infiltration unless indicated. Briefly, treated leaves were de-veined, the remaining tissue was cut into 1 cm×1 cm pieces and vacuum-infiltrated with ice-cold extraction buffer. […] The extracellular fluid containing the acidic PR-1a protein was collected by centrifugation at 1000 g for 10 minutes at 4° C. After collection, samples were stored at −80° C. Protein concentrations of extracellular fluids were determined by Bradford dye reagent (BioRad, Richmond, Calif.) used BSA as a standard. Eight to ten μg of each protein sample were analyzed by electrophoresis on 14% Native Polyacrylamide gels (14% pre-cast Tris-Glycine gels; Invitrogen, Carlsbad, Calif.). Gels were stained with colloidal blue staining reagent (Invitrogen), and PR-1a protein was quantitated using a Model GS-710 densitometer (BioRad).
# [2] = test system: tobacco mosaic virus (TMV); assay: Resistance measurement: TMV lesion diameter after spray application; settings: for Percent decrease in TMV-lesion diameter: percent reduction in the diameter of TMV lesions
# Protocol: as §1
# (§2) Test compounds were dissolved in ETOH and dispersed in water (0.1% v/v ethanol). Spray solutions were amended with 0.25% crop oil concentrate (v/v). Plants were sprayed to drip, and moved to a glasshouse.
# After spraying, one leaf per plant was inoculated with 1.0 ug TMV (U1; vulgare strain) at the times indicated. Six days post-inoculation, leaves were removed and the diameters of 20 necrotic lesions were measured per leaf. The mean lesion diameters from at least four plants per treatment were measured. Lesion diameter measures were subjected to two way analysis of variance (ANOVA) and Duncan's multiple range procedure at p=0.05.
# [3] = test system: PR-1a protein; assay: Induction of PR-1a protein in Xanthi-nc tobacco after spray application; settings: which equals 1
# Protocol: as §1, with “TMV. Plants were treated with chemicals and/or virus at 5-6 weeks after sowing, when they had 5-7 fully-expanded leaves.” for “TMV.”
# Proteins were harvested by the method of Yalpani et al. (1991; Plant Cell. 3:809-818). All harvests were performed 96 hours after infiltration unless indicated. Briefly, treated leaves were de-veined, the remaining tissue was cut into 1 cm×1 cm pieces and vacuum-infiltrated with ice-cold extraction buffer. Leaf tissue was blotted to remove excess buffer, and placed in a spin column assembly (Yalpani et al., 1991). The extracellular fluid containing the acidic PR-1a protein was collected by centrifugation at 1000 g for 10 minutes at 4° C. After collection, samples were stored at −80° C. Protein concentrations of extracellular fluids were determined by Bradford dye reagent (BioRad, Richmond, Calif.) used BSA as a standard. Eight to ten μg of each protein sample were analyzed by electrophoresis on 14% Native Polyacrylamide gels (14% pre-cast Tris-Glycine gels; Invitrogen, Carlsbad, Calif.). Gels were stained with colloidal blue staining reagent (Invitrogen), and PR-1a protein was quantitated using a Model GS-710 densitometer (BioRad).
# as §2
# [4] = 1 mM spray 48 h before TMV inoculation
# [5] = 1 mM spray 96 h before TMV inoculation
compound,measurement,setting,value
O=C(O)c1ccccc1F [2-Fluorobenzoic acid],"PR-1a induction, result in words",[1],significantly reduced activity
"O=C(O)c1c(O)c(Cl)cc(Cl)c1Cl [3,5,6-Trichlorosalicylic acid]",Percent decrease in TMV-lesion diameter,[2],45.1%
"O=C(O)c1c(O)c(Cl)cc(Cl)c1O [3,5-Dichloro-6-hydroxysalicylic acid]",Percent decrease in TMV-lesion diameter,[2],48.3%
"O=C(O)c1cc(Cl)cc(Cl)c1O [3,5-Dichlorosalicylic acid, reference compound]","PR-1a protein following treatment, 96 h","[1]; 1 mM, which equals 1",1.83
same,"PR-1a protein following treatment, 192 h","[1]; 1 mM, which equals 1",4.66
same,"PR-1a induction, result in words",[1],showed the greatest induction of PR-1a
same,Percent decrease in TMV-lesion diameter,[2],36.6%
"O=C(O)c1cc(F)cc(F)c1O [3,5-Difluorosalicylic acid]","PR-1a protein following treatment, 96 h","[1]; 1 mM, which equals 1",3.64
same,"PR-1a protein following treatment, 192 h","[1]; 1 mM, which equals 1",3.21
same,"PR-1a induction, result in words",[1],more induction at 96 hours than the corresponding chlorinated salicylates
same,Lesion diameter,[2]; [4],2.04 AB mm
same,Lesion diameter,[2]; [5],1.85 A mm
same,Percent decrease in TMV-lesion diameter,[2],55.0%
same,"Reduction of TMV-lesion size / resistance to TMV, result in words",[2]; spray application,statistically equal to that induced by 5 mM Salicylic acid
"O=C(O)c1cc([N+](=O)[O-])cc([N+](=O)[O-])c1O [3,5-Dinitrosalicylic acid]",Mean PR Induction (relative induction of PR-1a protein),"[1]; 1 mM, 96 h post infiltration, compared to 1 mM SA, which equals 1",0
same,"PR-1a induction, result in words",[1],completely deactivated
O=C(O)c1cc(F)cc(Cl)c1O [3-Chloro-5-fluorosalicylic acid],Percent decrease in TMV-lesion diameter,[2],34%
O=C(O)c1cccc(Cl)c1O [3-Chlorosalicylic acid],Percent decrease in TMV-lesion diameter,[2],55.1%
O=C(O)c1cc(Cl)cc(F)c1O [3-Fluoro-5-chlorosalicylic acid],Percent decrease in TMV-lesion diameter,[2],47.4%
O=C(O)c1cccc(F)c1O [3-Fluorosalicylic acid],Percent decrease in TMV-lesion diameter,[2],34.4%
O=C(O)c1ncccc1O [3-Hydroxypicolinic acid],"PR-1a induction, result in words",[1],induced PR-1a accumulation more than equimolar SA
COc1cccc(C(=O)O)c1O [3-Methoxysalicylic acid],Percent decrease in TMV-lesion diameter,[2],8.9%
O=C(O)c1cccc([N+](=O)[O-])c1O [3-Nitrosalicylic acid],"PR-1a induction, result in words",[1],decreased activity
Nc1ccc(C(=O)O)c(O)c1 [4-Aminosalicylic acid],Percent decrease in TMV-lesion diameter,[2],22.9%
"O=C(O)c1ccc(Cl)cc1O [4-Chlorosalicylic acid, reference compound]",Percent decrease in TMV-lesion diameter,[2],30.2%
O=C(O)c1ccc(F)cc1O [4-Fluorosalicylic acid],Percent decrease in TMV-lesion diameter,[2],36.2%
COc1ccc(C(=O)O)c(O)c1 [4-Methoxysalicylic acid],Percent decrease in TMV-lesion diameter,[2],17.6%
"O=C(O)c1cc(Cl)ccc1O [5-Chlorosalicylic acid, reference compound]","PR-1a protein following treatment, 96 h","[1]; 1 mM, which equals 1",1.02
same,"PR-1a protein following treatment, 192 h","[1]; 1 mM, which equals 1",1.75
same,Percent decrease in TMV-lesion diameter,[2],38.7%
O=C(O)c1cc(F)ccc1O [5-Fluorosalicylic acid],"PR-1a protein following treatment, 96 h","[1]; 1 mM, which equals 1",1.30
same,"PR-1a protein following treatment, 192 h","[1]; 1 mM, which equals 1",1.74
same,"PR-1a induction, result in words",[1],more induction at 96 hours than the corresponding chlorinated salicylates
same,Percent decrease in TMV-lesion diameter,[2],38.0%
COc1ccc(O)c(C(=O)O)c1 [5-Methoxysalicylic acid],Percent decrease in TMV-lesion diameter,[2],9.7%
O=C(O)c1cc([N+](=O)[O-])ccc1O [5-Nitrosalicylic acid],"PR-1a induction, result in words",[1],decreased activity
O=C(O)c1c(O)cccc1F [6-Fluorosalicylic acid],Percent decrease in TMV-lesion diameter,[2],24.3%
COc1cccc(O)c1C(=O)O [6-Methoxysalicylic acid],Percent decrease in TMV-lesion diameter,[2],13.3%
O=C(O)c1ccccc1 [Benzoic acid],"PR-1a induction, result in words",[1],unable to induce PR-1a accumulation
"CCOC(=O)C(C)OC(=O)c1cc(Oc2ccc(C(F)(F)F)cc2Cl)ccc1[N+](=O)[O-] (centres unmarked) [Lactofen, 1-(carboxyethoxy) ethyl 5-[2-chloro-4-(tri-fluoromethyl)phenoxy]-2-nitrobenzoate]",PR-1a (relative induction),"[3]; 290 ppm Lactofen, harvested 96 hours after spray application, compared to 1 mM SA",0.44
same,PR-1a (relative induction),"[3]; 1450 ppm Lactofen, harvested 96 hours after spray application, compared to 1 mM SA",2.00
"O=C([O-])c1ccccc1O.[Na+] [NaSA, sodium salicylate]",Lesion diameter,"[2]; NaSA 1600 mg/l, 48 hours after application",1.17 B mm
same,Lesion diameter,"[2]; NaSA 1600 mg/l, 96 hours after application",1.75 AB mm
same,PR-1a (relative induction),"[3]; 1600 ppm NaSA, harvested 96 hours after spray application, compared to 1 mM SA",1.00
same,PR-1a (relative induction),"[3]; 8000 ppm NaSA, harvested 96 hours after spray application, compared to 1 mM SA",4.56
same,PR-1a (relative induction),"[3]; NaSA 1600 mg/l, 48 hours after application, compared to infiltration with 1 mM SA at 96 h",0.34
same,PR-1a (relative induction),"[3]; NaSA 1600 mg/l, 96 hours after application, compared to infiltration with 1 mM SA at 96 h",1.02
"O=C(O)c1ccccc1O [Salicylic acid, reference compound]","PR-1a protein following treatment, 96 h","[1]; 1 mM, which equals 1",1.00
same,"PR-1a protein following treatment, 192 h","[1]; 1 mM, which equals 1",1.46
same,Lesion diameter,[2]; [4],2.20 BC mm
same,Lesion diameter,[2]; [5],2.52 B mm
same,Lesion diameter,[2]; 5 mM spray 48 h before TMV inoculation,1.88 A mm
same,Lesion diameter,[2]; 5 mM spray 96 h before TMV inoculation,1.68 A mm
O=C(O)c1ccccc1S [Thiosalicylic acid],"PR-1a induction, result in words",[1],significantly reduced activity
Salicylic acid/Sodiumsalicylate [reference compound],Mean PR Protein Induction,"[1]; 1 mM, 96 h post infiltration, compared to 1 mM SA, which equals 1 (Table 5)",1.0
same,Percent decrease in TMV-lesion diameter,[2],30.1%

# Source: US20050050587A1, “Inducers of plant disease resistance” (priority 2003, published 2005)
